How the values were obtained:
Assay type in all cases: physicochemical
[1] = Dynamic vapor sorption (DVS) analysis; details: 25° C.
Description: (§1) DVS analysis was carried out using a TA Instruments Q5000 Dynamic Vapor Sorption analyzer. The instrument was calibrated with standard weights and a sodium bromide standard for humidity. Approximately 10-25 mg of sample was loaded into a metal-coated quartz pan for analysis. The sample was analyzed at 25° C. with a maximum equilibration time of one hour in 10% relative humidity (RH) steps from 5% to 95% RH (adsorption cycle) and from 95% to 5% RH (desorption cycle). The movement from one step to the next occurred either after satisfying the equilibrium criterion of 0.01% weight change or, if the equilibrium criterion was not met, after one hour. The percent weight change values were calculated using Microsoft Excel®.

[2] = Post-DVS X-ray powder diffraction analysis (solid form stability); details: after DVS cycling 5%-95%-5% RH
Excerpt: (§2) The Rigaku Smart-Lab X-ray diffraction system was configured for reflection Bragg-Brentano geometry using a line source X-ray beam. The x-ray source was a Cu Long Fine Focus tube that was operated at 40 kV and 44 ma. That source provided an incident beam profile (at the sample) that changed from a narrow line at high angles to a broad rectangle at low angles. Beam conditioning slits were used on the X-ray source to ensure that the maximum beam size is less than 10 mm, both along the line and normal to the line. The Rigaku Smart-Lab was operated to give peak widths of 0.1 degrees two-theta or less. The axial divergence of the X-ray beam was controlled by 5.0-degree Soller slits in both the incident and diffracted beam paths.
(§3) Powder samples were prepared in a low-background Si holder using light manual pressure to keep the sample surfaces flat and level with the reference surface of the sample holder. Each sample was analyzed from 2 to 40 degrees two-theta using a continuous scan of 6 degrees two-theta per minute, with an effective step size of 0.02 degrees two-theta.
as §1

[3] = Post-heating X-ray powder diffraction analysis (solid form stability); details: heated at 80° C. for 20 minutes
Excerpt: as §2, §3
A sample of Form 2 was heated at 80° C. for 20 minutes. After cooling, the sample was analyzed using x-ray powder diffraction.

[4] = Solubility measurements in various solvents (visual inspection of dissolution); details: thermodynamic from solid
Description: The mass of a sample of Compound of Formula (I) was determined, and to that sample was added an aliquot of solvent, as shown in Table 5. Visual inspection was used to determine whether dissolution occurred. The solubility of Compound of Formula (I) in each solvent was calculated by dividing the weight of the sample by the total amount of solvent used to dissolve the sample. Table 6 lists the solubility of Compound of Formula (I) in each solvent.

[5] = slurry-derived samples of Example 2
[6] = sample of Example 3 (synthesized by a method similar to Example 4, Form 1)

NCCOCCOCCNc1ccc2c3c(cccc13)C(=O)N(CCOCCOCCN1C(=O)c3cccc4c(NCCOCCOCCN)ccc(c34)C1=O)C2=O [Form 2, 2,2′-((ethane-1,2-diylbis(oxy))bis(ethane-2,1-diyl))bis(6-((2-(2-(2-aminoethoxy)ethoxy)ethyl)amino)-1H-benzo[de]isoquinoline-1,3(2H)-dione)]
DVS weight gain when cycling from 5% to 95% relative humidity [1, 5]: 7.2% | DVS weight loss upon drying at 5% relative humidity [1, 5]: 1.44% | DVS weight loss when cycling from 95% to 5% relative humidity [1, 5]: 14.63% | XRPD pattern after DVS cycling relative to the same sample prior to DVS analysis [2]: less crystalline | XRPD pattern after heating relative to the same sample before [3]: less crystalline

NCCOCCOCCNc1ccc2c3c(cccc13)C(=O)N(CCOCCOCCN1C(=O)c3cccc4c(NCCOCCOCCN)ccc(c34)C1=O)C2=O [Compound of Formula (I), 2,2′-((ethane-1,2-diylbis(oxy))bis(ethane-2,1-diyl))bis(6-((2-(2-(2-aminoethoxy)ethoxy)ethyl)amino)-1H-benzo[de]isoquinoline-1,3(2H)-dione)]
solubility ([4]; 1,1,1,3,3,3-hexafluoro-2-propanol (HFIPA), organic solvent or mixture): 18000 µg/mL | solubility ([4]; 1,4-dioxane, organic solvent or mixture): < 1000 µg/mL | solubility ([4]; 2,2,2-trifluoroethanol (TFE), organic solvent or mixture): 18000 µg/mL | solubility ([4]; 2-methyl tetrahydrofuran (2-MeTHF), organic solvent or mixture): < 1000 µg/mL | solubility ([4]; N,N-dimethylformamide (DMF), organic solvent or mixture, N,N-dinnethylformamide (DMF)): < 1000 µg/mL | solubility ([4]; acetone, organic solvent or mixture): < 1000 µg/mL | solubility ([4]; acetone/water (95/5, v/v), organic solvent or mixture): < 1000 µg/mL | solubility ([4]; acetonitrile/water (95/5, v/v), organic solvent or mixture): < 1000 µg/mL | solubility ([4]; dichloromethane (DCM), organic solvent or mixture): < 1000 µg/mL | solubility ([4]; dimethylsulfoxide (DMSO), organic solvent or mixture): < 1000 µg/mL | solubility ([4]; ethanol/water (95/5, v/v), organic solvent or mixture): < 1000 µg/mL | solubility ([4]; methyl ethyl ketone (MEK), organic solvent or mixture): < 1000 µg/mL | solubility ([4]; organic solvent or mixture, 2-propanol (2-PrOH)): < 1000 µg/mL | solubility ([4]; organic solvent or mixture, acetonitrile (CAN)): < 1000 µg/mL | solubility ([4]; organic solvent or mixture, diethyl ether (Et2O)): < 1000 µg/mL | solubility ([4]; organic solvent or mixture, ethanol (EtOH)): < 1000 µg/mL | solubility ([4]; organic solvent or mixture, ethyl acetate (EtOAc)): < 1000 µg/mL | solubility ([4]; organic solvent or mixture, methanol (MeOH)): < 1000 µg/mL | solubility ([4]; tetrahydrofuran (THF), organic solvent or mixture): < 1000 µg/mL | solubility ([4]; tetrahydrofuran/water (95/5, v/v), organic solvent or mixture): < 1000 µg/mL | solubility ([4]; toluene, organic solvent or mixture): < 1000 µg/mL | solubility ([4]; water): < 1000 µg/mL | DVS weight gain when cycling from 5% to 95% relative humidity [1, 6]: 16.36% | DVS weight loss upon drying at 5% relative humidity [1, 6]: 0.66% | DVS weight loss when cycling from 95% to 5% relative humidity [1, 6]: 15.51% | XRPD pattern after DVS cycling relative to the same sample prior to DVS analysis [2]: unchanged

NCCOCCOCCNc1ccc2c3c(cccc13)C(=O)N(CCOCCOCCN1C(=O)c3cccc4c(NCCOCCOCCN)ccc(c34)C1=O)C2=O [Form 1, 2,2′-((ethane-1,2-diylbis(oxy))bis(ethane-2,1-diyl))bis(6-((2-(2-(2-aminoethoxy)ethoxy)ethyl)amino)-1H-benzo[de]isoquinoline-1,3(2H)-dione)]
DVS weight gain when cycling from 5% to 95% relative humidity [1, 6]: 16.36% | DVS weight loss upon drying at 5% relative humidity [1, 6]: 0.66% | DVS weight loss when cycling from 95% to 5% relative humidity [1, 6]: 15.51% | DVS weight gain when cycling from 5% to 95% relative humidity [1, 5]: 13.04% | DVS weight loss upon drying at 5% relative humidity [1, 5]: 0.6% | DVS weight loss when cycling from 95% to 5% relative humidity [1, 5]: 13.12% | XRPD pattern after DVS cycling relative to the same sample prior to DVS analysis [2]: unchanged
